Data reported in patent US9498546B2, “Synthesis and application of novel imaging agents conjugated to DPA 713 analogs for imaging inflammation” (THE JOHNS HOPKINS UNIVERSITY, priority 2012, dated 2016).

Experiments:
[1] = system: TSPO+ MDA-MB-231 / MDA-MB-231-PSMA xenografts; test: In vivo NIRF imaging in TSPO+ MDA-MB-231 breast cancer xenograft bearing mice; design: species or system NOD-SCID mice; settings: 6 nmol intraperitoneally; imaged 1-24 hours
Description: Cell lines and Tumor Models. Generation of MDA-MD-231-LMD-PSMA cells. LV-PSMA is a VSV-G pseudotyped lentivirus encoding PSMA which was packaged in 293T cells. LMD-PSMA cells were generated in-house by repetitive lentiviral transduction of a cell line isolated from a lung metastasis derived MDA-MB-231 xenograft in a female NOD-SCID mouse. PSMA expression was evaluated by western blot analysis with 7E11-05 (1:200 dilution). […] Six-to-eight week old female NOD SCID mice were injected subcutaneously with 5×10^6 MDA-MB-231-LMD (a lung metastasis-derived subline of parental MDA-MB-231 behind the right forearm and 5×10^6 MDA-MB-231-LMD-PSMA (the same cell line with Prostate Specific Membrane Antigen (PSMA) stably knocked in via lentiviral vector) injected behind the […] xenografts were allowed to grow until the PSMA xenograft was at least 3 mm in diameter while the −LMD xenograft had reached 6-8 mm in diameter.
Serial in vivo NIRF imaging in TSPO+MDA-MB-231 LMD±PSMA and PC-3 PIP and -flu tumor xenograft bearing mice. MDA-MB-231 LMD lines: one mouse was imaged serially at 1 hour post-tracers, 4 hours, 8 hours and 24 hours post-tracers using a Pearl Impulse Imager (LI-COR Biosciences) with dedicated 710 and 800 nm emission filters. All images were scaled to the same maximum using the manufacturer's software to facilitate direct comparison of all timepoints. […]

[2] = system: CD68+ macrophages in PC-3 PIP and PC-3 flu xenografts; test: Ex vivo fluorescence microscopy of PC-3 PIP and PC-3 flu xenografts; format: in vivo, mice
Description: FIG. 8 is a series of photomicrographs showing ex vivo fluorescence microscopy of DPA-713-IRDye680LT in PC-3 PIP and PC-3 flu xenografts at 24 hours post-injection. […] A & B. PIP tumor DPA-713-IRDye680LT only; C.
Ex vivo DPA-713-IRDye680LT microscopy. The mice used in the in vivo NIRF studies (PC-3 analog xenografts and MDA-MB-231 analog xenografts) were sacrificed at the end of their studies and their tumors were collected and frozen on dry ice for cryosectioning to 20 microns on charged glass slides (VWR). The sections were then probed with both anti-TSPO Ab (Novus Biologicals NBP1-45769, 1:70) labeled directly with Lissamine sulfonyl chloride (Aldrich) according to the known method and anti-CD68 Ab (Abcam ab53444, 1:40) and lastly with Hoechst 33342 (Invitrogen, 1 ng/mL). Both antibodies were added simultaneously in a 10% FBS in PBS solution applied directly to the freshly thawed sections and allowed to sit at room temperature for 1 hour. The sections were washed twice at room temperature for 5 minutes each with PBS prior to the addition of sheep-anti-rat-FITC (Abcam ab6848-1, 1:250) in PBS at room temperature for 30 minutes. The secondary antibody solution was removed and the slides were bathed in Hoechst solution (PBS) for 1.5 minutes at room temperature before being washed twice as before with PBS. The slides were then mounted in Dako Cytomation aqueous mounting media with a glass coverslip and viewed 30 minutes later using a Nikon 80i upright epifluorescence microscope equipped with a Nikon DS-QilMc darkfield CCD camera and excited by a Nikon Intensilight C-HGFI lamp. All images are recorded and processed using Nikon Imaging Software Elements.
FIG. 9 depicts a series of NIRF image showing in vivo, ex vivo and in vitro binding of DPA-713-IRDye800CW to androgen sensitive (TSPO−) LNCaP (9E), androgen insensitive (TSPO+) PC-3 prostate xenografts and TSPO+ subcutaneous and orthotopic U87 GBM xenografts.

[3] = target: T1, TSPO (3H-R-PK11195 binding in J774 macrophages) (Mus musculus, UniProt P50637); test: IC50 determination: inhibition of [3H]PK11195 binding in live J774 macrophage-like cells; design: species or system murine; settings: fixed concentration of [3H]PK11195, FIG. 3
T1 construct: using a fixed number of live murine J774 macrophage-like cells; endogenous in cells; host or cells: J774 murine macrophage-like cell line (live cells)
Description: FIG. 3 is a graph showing the IC50 for inhibition of 3H-R-PK11195 binding in J774 macrophages by DPA713-IRDye680LT (nM).
The IC50 value determination was done by using a fixed number of live murine J774 macrophage-like cells and incubating increasing concentrations of DPA-713-IRDye against a fixed concentration of [^3H]PK11195. All reactions and washes (50 mM Tris, pH 7.4) are done using a Brandell Cell Harvester and the cells are counted in a scintillation counter with scintillent at the end. The cpm for each group is then plotted against the log of DPA-713-IRDye concentration and the data fitted to a sigmoidal curve. The 50% inhibition of [^3H]PK11195 binding is then determined and reported as the IC50 (FIG. 3).

In the case of CCN(CC)C(=O)Cc1c(-c2ccc(OCCNC(=O)CCCCc3cccc(C(=C\C=C4/N(CCCS(=O)(=O)O)c5ccc6c(S(=O)(=O)O)cc(S(=O)(=O)O)cc6c5C4(C)C)/C=C/C4=[N+](CCCS(=O)(=O)[O-])c5ccc6c(S(=O)(=O)O)cc(S(=O)(=O)O)cc6c5C4(C)C)c3)cc2)nn2c(C)cc(C)nc12 [DPA-713-IRDye680LT, 3-(2-((1E,3Z,5Z)-3-(3-(5-(2-(4-(3-(2-(diethylamino)-2-oxoethyl)-5,7-dimethylpyrazolo[1,5-a]pyrimidin-2-yl)phenoxy)ethylamino)-5-oxopentyl)phenyl)-5-(1,1-dimethyl-6,8-disulfo-3-(3-sulfopropyl)-1Hbenzo[e]indol-2(3H)-ylidene)penta-1,3-dienyl)-1,1-dimethyl-6,8-disulfo-1H-benzo[e]indolium-3-yl)propane-1-sulfonate], the “Probe uptake in the larger (8 mm) PSMA+ xenograft” value [1] is reported as “visible 1 hour following peritoneal injection and continues through 24 hours after injection”, the “Probe uptake in the smaller (3 mm) parental xenograft” value [1] is reported as “no observable uptake until the fur and skin are removed at 24 hours post-injection” and the “Cell-specific accumulation of probe in prostate tumor xenografts” value ([2]; 24 hours of in vivo biodistribution) is reported as “accumulated specifically within CD68+ macrophages”. For the same compound, the “Probe accumulation, PC-3 PIP compared with PC-3 flu xenografts” value ([2]; 24 hours post-injection) was “PC-3 PIPs accumulate more”, the “Blocking of probe accumulation by unlabeled DPA-713” value ([2]; co-injection with 20 mg/kg unlabeled DPA-713, 24 hours post-injection) was “accumulation is blocked” and the IC50 [3] was roughly 325 nM.
